In patent US20230220105A1, “TUMOR ACTIVATED T CELL ENGAGERS AND METHODS OF USE THEREOF” (Janux Therapeutics, Inc., priority 2019, published 2023):

Tests used:
[1] = target: MAGE-A3 TCR (TCR-1); assay: Equilibrium binding of TCR to peptides (ELISA)
Procedure: Peptide binding was also examined in an ELISA format. Biotinylated peptides were captured on neutravidin coated plates. TCR was then prepared in a half-log dilution series starting from 10 uM and titrated onto the peptide captured plates. […] The concentration of TCR required to observe half maximal binding signal (EC50) was then calculated using Graphpad Prism.

[2] = test system: MAGE-A3 TCR (TCR-1); assay: Kinetic binding of TCR to peptides (Octet BLI); details: Table 3; Ala mutants of Peptide-5 and controls
Procedure: BLI based kinetic binding of TCR to peptides was measured using a ForteBio Octet RED96 instrument. Biotinylated peptides were first directly captured on streptavidin biosensors. Sensors were quenched using excess biocytin and then baselined in buffer. A dilution series of TCR was made and associated onto the peptide loaded biosensor. Association and dissociation signals were monitored in real-time. Signals were fit to a 1:1 binding model in order to derive binding constants, kon and koff, as well as KD.

[3] = test system: TCR-1 binding to MAGE-A3 pMHC; assay: Inhibition of kinetic binding of TCR to its cognate pMHC (BLI); details: Table 3
Procedure: First, biotinylated pMHC was captured on streptavidin biosensors. Sensors were quenched using excess biocytin and then baselined in buffer. Inhibitory peptide was titrated in a two fold dilution series starting from 100 uM and pre-incubated with a constant concentration of 50 nM TCR. Peptide and TCR mixtures were then associated onto the pMHC loaded biosensor. Zero concentration of inhibitory peptide or zero concentration of TCR were used as controls. Association and dissociation signals were monitored in real-time. The maximal association signal was normalized from 100% (0 uM inhibitory peptide control) to 0% (0 nM TCR control) and plotted versus log-scale inhibitory peptide concentration.

| EC50 ([1]; Table 3) | Octet BLI Binds TCR [2] | binding to TCR-1, Ala scan and control peptides ([1]; relative to Peptide-5) | EC50 ([1]; Table 2, TCR-1 titrated on captured peptide) | Octet BLI Competes at 100 uM [3] | Compound |
| --- | --- | --- | --- | --- | --- |
| > 10 µM | No |  |  |  | ESDPIVAQY [Peptide-35, Titin peptide, linear control absent MHC presentation, reference compound] |
| > 10 µM | No | lack of binding |  |  | EVDPIGHLY [Peptide-34, MAGE-A3 antigen peptide, linear control absent MHC presentation, reference compound] |
|  |  |  | 0.05 µM |  | GGNQCWEVYDQEFCSL [Peptide-9] |
|  | Yes |  |  | Yes | CC(C)[C@H](NC(=O)CNC(=O)CN)C(=O)N[C@@H](CO)C(=O)N[C@H]1CSSC[C@@H](C(=O)N[C@@H](Cc2c[nH]c3ccccc23)C(=O)N[C@@H](C)C(=O)NCC(=O)NCC(=O)NCC(=O)NCC(=O)N[C@@H](CO)C(=O)NCCOCCOCCOCCOCCC(=O)N[C@@H](CCCCNC(=O)CCCC[C@@H]2SC[C@@H]3NC(=O)N[C@@H]32)C(N)=O)NC(=O)[C@H](Cc2ccccc2)NC(=O)[C@H](C)NC(=O)[C@H](CCC(=O)O)NC(=O)[C@H](CC(=O)O)NC(=O)[C@H](Cc2ccc(O)cc2)NC(=O)[C@H](C(C)C)NC(=O)[C@H](CC(=O)O)NC(=O)[C@H](CCCCN)NC1=O [Peptide-33] |
| > 10 µM | No |  |  |  | CC(C)[C@H](NC(=O)CNC(=O)CN)C(=O)N[C@@H](CO)C(=O)N[C@H]1CSSC[C@@H](C(=O)N[C@@H](Cc2c[nH]c3ccccc23)C(=O)N[C@H](C(=O)NCC(=O)NCC(=O)NCC(=O)NCC(=O)N[C@@H](CO)C(=O)NCCOCCOCCOCCOCCC(=O)N[C@@H](CCCCNC(=O)CCCC[C@@H]2SC[C@@H]3NC(=O)N[C@@H]32)C(N)=O)[C@@H](C)O)NC(=O)[C@H](C)NC(=O)[C@H](C)NC(=O)[C@H](CCC(=O)O)NC(=O)[C@H](CC(=O)O)NC(=O)[C@H](Cc2ccc(O)cc2)NC(=O)[C@H](C(C)C)NC(=O)[C@H](CC(=O)O)NC(=O)[C@H](CCCCN)NC1=O [Peptide-30] |
| > 10 µM | No |  |  |  | CC(C)[C@H](NC(=O)CNC(=O)CN)C(=O)N[C@@H](CO)C(=O)N[C@H]1CSSC[C@@H](C(=O)N[C@@H](Cc2c[nH]c3ccccc23)C(=O)N[C@H](C(=O)NCC(=O)NCC(=O)NCC(=O)NCC(=O)N[C@@H](CO)C(=O)NCCOCCOCCOCCOCCC(=O)N[C@@H](CCCCNC(=O)CCCC[C@@H]2SC[C@@H]3NC(=O)N[C@@H]32)C(N)=O)[C@@H](C)O)NC(=O)[C@H](Cc2ccccc2)NC(=O)[C@H](C)NC(=O)[C@H](CCC(=O)O)NC(=O)[C@H](CC(=O)O)NC(=O)[C@H](C)NC(=O)[C@H](C(C)C)NC(=O)[C@H](CC(=O)O)NC(=O)[C@H](CCCCN)NC1=O [Peptide-27] |
|  | Yes |  |  | Yes | CC(C)[C@H](NC(=O)CNC(=O)CN)C(=O)N[C@@H](CO)C(=O)N[C@H]1CSSC[C@@H](C(=O)N[C@@H](C)C(=O)N[C@H](C(=O)NCC(=O)NCC(=O)NCC(=O)NCC(=O)N[C@@H](CO)C(=O)NCCOCCOCCOCCOCCC(=O)N[C@@H](CCCCNC(=O)CCCC[C@@H]2SC[C@@H]3NC(=O)N[C@@H]32)C(N)=O)[C@@H](C)O)NC(=O)[C@H](Cc2ccccc2)NC(=O)[C@H](C)NC(=O)[C@H](CCC(=O)O)NC(=O)[C@H](CC(=O)O)NC(=O)[C@H](Cc2ccc(O)cc2)NC(=O)[C@H](C(C)C)NC(=O)[C@H](CC(=O)O)NC(=O)[C@H](CCCCN)NC1=O [Peptide-32] |
|  | No |  |  |  | CC(C)[C@H](NC(=O)CNC(=O)CN)C(=O)N[C@@H](C)C(=O)N[C@H]1CSSC[C@@H](C(=O)N[C@@H](Cc2c[nH]c3ccccc23)C(=O)N[C@H](C(=O)NCC(=O)NCC(=O)NCC(=O)NCC(=O)N[C@@H](CO)C(=O)NCCOCCOCCOCCOCCC(=O)N[C@@H](CCCCNC(=O)CCCC[C@@H]2SC[C@@H]3NC(=O)N[C@@H]32)C(N)=O)[C@@H](C)O)NC(=O)[C@H](Cc2ccccc2)NC(=O)[C@H](C)NC(=O)[C@H](CCC(=O)O)NC(=O)[C@H](CC(=O)O)NC(=O)[C@H](Cc2ccc(O)cc2)NC(=O)[C@H](C(C)C)NC(=O)[C@H](CC(=O)O)NC(=O)[C@H](CCCCN)NC1=O [Peptide-22] |
|  | Yes |  |  | Yes | CC(C)[C@H](NC(=O)CNC(=O)CN)C(=O)N[C@@H](CO)C(=O)N[C@H]1CSSC[C@@H](C(=O)N[C@@H](Cc2c[nH]c3ccccc23)C(=O)N[C@H](C(=O)NCC(=O)NCC(=O)NCC(=O)NCC(=O)N[C@@H](CO)C(=O)NCCOCCOCCOCCOCCC(=O)N[C@@H](CCCCNC(=O)CCCC[C@@H]2SC[C@@H]3NC(=O)N[C@@H]32)C(N)=O)[C@@H](C)O)NC(=O)[C@H](Cc2ccccc2)NC(=O)[C@H](C)NC(=O)[C@H](CCC(=O)O)NC(=O)[C@H](C)NC(=O)[C@H](Cc2ccc(O)cc2)NC(=O)[C@H](C(C)C)NC(=O)[C@H](CC(=O)O)NC(=O)[C@H](CCCCN)NC1=O [Peptide-28] |
| > 10 µM | Weak |  |  |  | CC(C)[C@H](NC(=O)CNC(=O)CN)C(=O)N[C@@H](CO)C(=O)N[C@@H](CS)C(=O)N[C@@H](CCCCN)C(=O)N[C@@H](CC(=O)O)C(=O)N[C@H](C(=O)N[C@@H](Cc1ccc(O)cc1)C(=O)N[C@@H](CC(=O)O)C(=O)N[C@@H](CCC(=O)O)C(=O)N[C@@H](C)C(=O)N[C@@H](Cc1ccccc1)C(=O)N[C@@H](C)C(=O)N[C@@H](Cc1c[nH]c2ccccc12)C(=O)N[C@H](C(=O)NCC(=O)NCC(=O)NCC(=O)NCC(=O)N[C@@H](CO)C(=O)NCCOCCOCCOCCOCCC(=O)N[C@@H](CCCCNC(=O)CCCC[C@@H]1SC[C@@H]2NC(=O)N[C@@H]21)C(N)=O)[C@@H](C)O)C(C)C [Peptide-31] |
|  | Weak |  |  |  | CC(C)[C@H](NC(=O)CNC(=O)CN)C(=O)N[C@@H](CO)C(=O)N[C@H]1CSSC[C@@H](C(=O)N[C@@H](Cc2c[nH]c3ccccc23)C(=O)N[C@H](C(=O)NCC(=O)NCC(=O)NCC(=O)NCC(=O)N[C@@H](CO)C(=O)NCCOCCOCCOCCOCCC(=O)N[C@@H](CCCCNC(=O)CCCC[C@@H]2SC[C@@H]3NC(=O)N[C@@H]32)C(N)=O)[C@@H](C)O)NC(=O)[C@H](Cc2ccccc2)NC(=O)[C@H](C)NC(=O)[C@H](CCC(=O)O)NC(=O)[C@H](CC(=O)O)NC(=O)[C@H](Cc2ccc(O)cc2)NC(=O)[C@H](C(C)C)NC(=O)[C@H](C)NC(=O)[C@H](CCCCN)NC1=O [Peptide-25] |
|  | Yes |  |  | Yes | CC(C)[C@H](NC(=O)CNC(=O)CN)C(=O)N[C@@H](CO)C(=O)N[C@H]1CSSC[C@@H](C(=O)N[C@@H](Cc2c[nH]c3ccccc23)C(=O)N[C@H](C(=O)NCC(=O)NCC(=O)NCC(=O)NCC(=O)N[C@@H](CO)C(=O)NCCOCCOCCOCCOCCC(=O)N[C@@H](CCCCNC(=O)CCCC[C@@H]2SC[C@@H]3NC(=O)N[C@@H]32)C(N)=O)[C@@H](C)O)NC(=O)[C@H](Cc2ccccc2)NC(=O)[C@H](C)NC(=O)[C@H](CCC(=O)O)NC(=O)[C@H](CC(=O)O)NC(=O)[C@H](Cc2ccc(O)cc2)NC(=O)[C@H](C(C)C)NC(=O)[C@H](CC(=O)O)NC(=O)[C@H](C)NC1=O [Peptide-24] |
|  | Yes |  |  | Yes | CC(C)[C@@H]1NC(=O)[C@H](CC(=O)O)NC(=O)[C@H](CCCCN)NC(=O)[C@@H](NC(=O)[C@H](CO)NC(=O)[C@H](C)NC(=O)CNC(=O)CN)CSSC[C@@H](C(=O)N[C@@H](Cc2c[nH]c3ccccc23)C(=O)N[C@H](C(=O)NCC(=O)NCC(=O)NCC(=O)NCC(=O)N[C@@H](CO)C(=O)NCCOCCOCCOCCOCCC(=O)N[C@@H](CCCCNC(=O)CCCC[C@@H]2SC[C@@H]3NC(=O)N[C@@H]32)C(N)=O)[C@@H](C)O)NC(=O)[C@H](Cc2ccccc2)NC(=O)[C@H](C)NC(=O)[C@H](CCC(=O)O)NC(=O)[C@H](CC(=O)O)NC(=O)[C@H](Cc2ccc(O)cc2)NC1=O [Peptide-21] |
|  | No |  |  |  | CC(C)[C@H](NC(=O)CNC(=O)CN)C(=O)N[C@@H](CO)C(=O)N[C@H]1CSSC[C@@H](C(=O)N[C@@H](Cc2c[nH]c3ccccc23)C(=O)N[C@H](C(=O)NCC(=O)NCC(=O)NCC(=O)NCC(=O)N[C@@H](CO)C(=O)NCCOCCOCCOCCOCCC(=O)N[C@@H](CCCCNC(=O)CCCC[C@@H]2SC[C@@H]3NC(=O)N[C@@H]32)C(N)=O)[C@@H](C)O)NC(=O)[C@H](Cc2ccccc2)NC(=O)[C@H](C)NC(=O)[C@H](CCC(=O)O)NC(=O)[C@H](CC(=O)O)NC(=O)[C@H](Cc2ccc(O)cc2)NC(=O)[C@H](C)NC(=O)[C@H](CC(=O)O)NC(=O)[C@H](CCCCN)NC1=O [Peptide-26] |
| > 10 µM | Yes |  |  | Yes | CC(C)[C@H](NC(=O)CNC(=O)CN)C(=O)N[C@@H](CO)C(=O)N[C@@H](C)C(=O)N[C@@H](CCCCN)C(=O)N[C@@H](CC(=O)O)C(=O)N[C@H](C(=O)N[C@@H](Cc1ccc(O)cc1)C(=O)N[C@@H](CC(=O)O)C(=O)N[C@@H](CCC(=O)O)C(=O)N[C@@H](C)C(=O)N[C@@H](Cc1ccccc1)C(=O)N[C@@H](CS)C(=O)N[C@@H](Cc1c[nH]c2ccccc12)C(=O)N[C@H](C(=O)NCC(=O)NCC(=O)NCC(=O)NCC(=O)N[C@@H](CO)C(=O)NCCOCCOCCOCCOCCC(=O)N[C@@H](CCCCNC(=O)CCCC[C@@H]1SC[C@@H]2NC(=O)N[C@@H]21)C(N)=O)[C@@H](C)O)C(C)C [Peptide-23] |
|  | No |  |  |  | CC(C)[C@H](NC(=O)CNC(=O)CN)C(=O)N[C@@H](CO)C(=O)N[C@H]1CSSC[C@@H](C(=O)N[C@@H](Cc2c[nH]c3ccccc23)C(=O)N[C@H](C(=O)NCC(=O)NCC(=O)NCC(=O)NCC(=O)N[C@@H](CO)C(=O)NCCOCCOCCOCCOCCC(=O)N[C@@H](CCCCNC(=O)CCCC[C@@H]2SC[C@@H]3NC(=O)N[C@@H]32)C(N)=O)[C@@H](C)O)NC(=O)[C@H](Cc2ccccc2)NC(=O)[C@H](C)NC(=O)[C@H](C)NC(=O)[C@H](CC(=O)O)NC(=O)[C@H](Cc2ccc(O)cc2)NC(=O)[C@H](C(C)C)NC(=O)[C@H](CC(=O)O)NC(=O)[C@H](CCCCN)NC1=O [Peptide-29] |
